Common to all, as to type: binding
Test [1] has as its target PmrA-DNA complex (Klebsiella pneumoniae, UniProt W9BNR5). The experiment in a line: Fluorescence polarization (FP) assay of inhibition of PmrA-DNA complex formation. As for the experimental part: (§1) Fluorescence Polarization (FP) Measurements
(§2) Compounds, E1-E5, were purchased from InterBioScreen (Moscow, Russia) (E1: STOCK1S-95047; E2: STOCK1N-13224; E3: STOCK1N-16691; E4: STOCK 1 S-43938; E5: STOCK1S-55283), and the purity are over 90% examined by NMR. The oligonucleotides (5′-[…]-3′, SEQ ID NO: 2) labeled with 6-carboxyfluorescein (6-FAM) at the 5′-position, was dissolved in 10 mM sodium phosphate and 15 mM NaCl pH 7.0 for fluorescence polarization experiments. About 10 μl activated PmrA (prepared in 10 mM sodium phosphate and 15 mM NaCl at pH7.0) was first added into the well of ELISA plate. Then, 1 μl of serial diluted inhibitors, E1-E5, (prepared in the sample buffer of activated PmrA) were mixed with the PmrA (final concentration Of 30 μM) to reach the interested concentrations and incubated at 25° C. for 10 mins. Subsequently, 9 μl of 6-FAM-labeled DNA (final concentration of 10 nM) was added into the reaction, incubating at 25° C. for another 10 mins. Reactions were measured 3 times by use of a SpectraMax Paradigm plate reader (Molecular Devices, CA, USA) with excitation wavelength 485 nm and emission wavelength 535 nm. The inhibition % was derived according to the following equation:
(§3) [formula] in which (D), (P+D), and (P+I+D) are the polarization intensity of DNA alone, PmrA with DNA, and PmrA mixed with inhibitor then incubated with DNA, respectively.
(§4) Fluorescence polarization (FP) was first employed to access the inhibitory abilities of E1-E5 against the formation of PmrA-DNA complex in accordance with procedures described in the section of “Materials and Methods.” Results are depicted in FIG. 1, panels E and F, and Table 1.
For orientation: In fluorescence polarisation assays a small probe gives low polarisation when free and higher when bound to something large.

Test [2] has as its target PmrA-DNA complex (Klebsiella pneumoniae, UniProt W9BNR5, I220D/W181G). The description is as above. Particulars: read-out: inhibition of PmrA binding to DNA (PmrA-DNA complex formation). As for the experimental part: as §1, §2, §3, §4
Test [3] deals with T1, PmrAC (C-terminal domain of PmrA) (Klebsiella pneumoniae, UniProt W9BNR5).
T1 sequence (W9BNR5 121-223): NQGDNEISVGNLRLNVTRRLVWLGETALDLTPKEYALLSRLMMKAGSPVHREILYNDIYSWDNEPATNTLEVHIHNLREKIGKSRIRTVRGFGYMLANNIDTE
In words: Isothermal titration calorimetry (ITC). As for the experimental part:
Isothermal Titration Calorimetry (ITC)
The binding affinities of PmrAC with compound, E1, was estimated by ITC using a MicroCal iTC200 microcalorimeter. The sample of PmrAC was prepared in reaction buffer (20 mM sodium phosphate, 100 mM NaCl, pH6.0). Compounds were also prepared in reaction buffer (E1=0.4 mM) and titrated into PmrAC (45 μM) at 25° C. The background heat generated from compound to buffer titration was subtracted, and the corrected heat form the binding reaction of PmrAC to E1 was used to derive the association constant (Ka), the enthalpy of binding (ΔH), the change in Gibbs free energy (ΔG), and the entropy changes ([…]) at 298K. All the data were analyzed by using Origin ITC Analysis (MicroCal Software, Northampton, Mass., USA).
(§5) The binding affinity of E1 toward PmrAC (C-terminal domain of PmrA) was further assessed by Isothermal titration calorimetry (ITC) and Bio-layer interferometer (BLI) at the condition described previously (Lou et al., Nature communication 2015, 6, 8838.) (sodium phosphate buffer pH6.0). According to the ITC results, the interaction of E1 with PmrAC appeared to be an exothermic reaction, with a change in enthalpy (ΔH) of −21.4 kcal/mol, change in entropy (AS) of −45.6 […], and N value of 1.09 (FIG. 2, panel G).
(In general: ITC needs no label: the signal is the heat of the interaction.)

Test [4] deals with T1, PmrAC (C-terminal domain of PmrA). In words: Bio-layer interferometry (BLI). As for the experimental part:
Bio-Layer Interferometry (BLI)
The BLI kinetics were obtained by using the ForteBio Octet RED96 instrument (ForteBio, Pall Life Sciences). Recombinant PmrAC carrying C-terminal 6× His tag was immobilized on the HIS1K biosensor in the reaction buffer containing 20 mM sodium phosphate, 100 mM NaCl, pH 6.0 at 25° C. for 180 s prior to kinetic experiment. For the association, the preloading biosensor was exposed to different concentration of E1 (0-37.5 μM) for the period of 300 s. Following the dissociation step, the sensor was subjected to the reaction buffer for 300 s. Kinetic constants, including Kon (association constant, M^−1s^−1) and Koff (dissociation constant, s^−1), were obtained by fitting the reaction model 1:1 kinetics to the reference-subtracted data. The equilibrium dissociation (KD) was calculated as the ratio of Koff to Kon. All calculation was determined using Data Analysis 7 software (ForteBio, Pall Life Sciences).
as §5
For orientation: Biolayer interferometry detects binding as a change in optical thickness at a sensor tip.

Test [5] shares this target. In words: NMR (2D 1H-15N TROSY-HSQC) compound titration for dissociation constant. As for the experimental part: NMR Spectroscopy and Compound Titrations
The preparations of NMR samples were as described previously (Mscielag and Goldschmidt, Expert opinion on investigational drugs 2000, 9, 2351-2369.). Briefly, the activated and inactivated PmrA (0.3 ml, 0.25 mM) were prepared in pH8.0 buffer (20 mM Tris and 100 mM NaCl) with or without BeF3^− activation. PmrAC (0.3 ml, 0.25 mM) was prepared in pH8.0 buffer (20 mM Tris and 100 mM NaCl). All the protein solutions were further loaded in Shigemi NMR tubes (Shigemi Inc.). NMR experiments for activated/inactivated PmrA and PmrAC were conducted at 310 and 298K on Brucker AVANCE 600 or 800 NMR spectrometers (Bruker, Karlsruhe, Germany) equipped with a triple-resonance cryoprobe including a shielded z-gradient. The hetero-nuclear NMR experiments for backbone assignments were performed as described previously in a review article (Garcia-Calderon et al., Journal of Bacteriology 2007, 189, 6635-6644). All the acquired NMR spectra were processed by using NMRPipe (Chen and Groisman, Annual review of microbiology 2013, 67, 83-112) and analyzed with NMRViewJ8.0a.22 (Wosten et al., Molecular microbiology 2006, 60, 39-50). […] The chemical shift changes were calculated through the equation Δδ=[(ΔδNH)^2+(0.17×ΔδN)^2]^0.5, in which ΔδNH and ΔδN are the chemical shift differences for ^1HN and ^15N, respectively. […]

Molecules are shown by their SMILES.

Chain of PmrA-DNA complex (Klebsiella pneumoniae, UniProt W9BNR5) (W9BNR5 whole entry I220D/W181G, one chain of several): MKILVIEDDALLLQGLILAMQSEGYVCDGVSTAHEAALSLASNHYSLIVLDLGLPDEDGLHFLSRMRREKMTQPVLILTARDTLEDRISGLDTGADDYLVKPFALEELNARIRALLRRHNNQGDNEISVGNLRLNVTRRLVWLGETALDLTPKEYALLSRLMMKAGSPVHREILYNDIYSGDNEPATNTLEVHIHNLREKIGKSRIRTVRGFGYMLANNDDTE
Chain of PmrA-DNA complex (Klebsiella pneumoniae, UniProt W9BNR5, I220D/W181G) (W9BNR5 whole entry I220D/W181G, the tested form may be a part, one chain of several): as the sequence (W9BNR5 whole entry I220D/W181G, one chain of several) above

Consider `O=S(=O)(O)CC1CSSCC(CS(=O)(=O)O)SS1` (centres unmarked) [Compound E3], for which, in test [1], the IC50 (usually the midpoint of a concentration-inhibition curve) was determined as 100 ± 2.5 µM. In addition, the inhibition (in general, the drop in the measured response relative to a control, in per cent) at 50 µM in test [2] was determined as 27.4 ± 1.8%.
For the compound `O=S(=O)(O)c1ccc(-c2ncc(-c3ccc(-c4cnc(-c5ccc(S(=O)(=O)O)cc5)o4)cc3)o2)cc1` [Compound E1], the dissociation constant Kd (commonly the concentration at which binding is half-saturated) in test [3] is 1.7 µM; in test [4] it was 2.6 ± 0.1 µM; in test [5], 126 ± 34.6 µM. 10.2 ± 2.6 µM corresponded to half-maximal inhibition in test [1] (IC50). Moreover, the inhibition at 50 µM in test [2] stood at 70.2 ± 3.2%. Besides, the dissociation rate constant (koff) (usually the first-order rate constant of dissociation) in test [4] (read-out: Koff rate) was determined as 0.251 s⁻¹. Moreover, the kon (usually the rate constant with which the complex forms) in test [4] (read-out: Kon rate) amounted to 94900 M⁻¹ s⁻¹.
In test [1], `O=S(=O)(O)CCOCC1CSSCC(COCCS(=O)(=O)O)SS1` (centres unmarked) [Compound E2] came in with an IC50 of 42.5 ± 2.9 µM. The inhibition at 50 µM in test [2] was 55.9 ± 2.7%.

The values are drawn from patent US10894037B2, “Inhibitors of bacterial two component signal transduction system and uses thereof” (priority 2017, dated 2021).
